Patent US9057093B2 (priority 2010, dated 2015)
Where two headings read alike, the source gives them in different places.

System: Legionella pneumophila strains
Assay type: cell-based
Details: for optimal dose: dose giving best improvement in latency and/or growth rate
[1] = supplemented medium vs reference medium (YEC), doses between 0.01 and 5% weight of compound on volume of sample, variety of strains
[2] = doses of between 10^−6 to 10^−2 mM, especially 10^−4 mM, numerous strains

Structure (SMILES) | optimal dose | latency and/or growth rate [1] | latency and/or growth rate (doses of between 1 to 10^−4 mM, especially around 10^−2 mM, a number of strains) | latency and/or growth rate [2]
C[C@@H](O)[C@H](N)C(=O)O [threonine] | around 1 g per litre | improvements in latency and/or growth rate | – | –
N[C@@H](CO)C(=O)O [serine] | around 1 g per litre | improvements in latency and/or growth rate | – | –
[Cl-].[K+] [potassium chloride] | – | – | Improvements in latency and/or growth rate | –
[Ca+2].[Cl-].[Cl-] [calcium chloride] | – | – | – | Improvements in latency and/or growth rate
[Cl-].[Cl-].[Mg+2] [magnesium chloride] | – | – | – | Improvements in latency and/or growth rate
